Results published in paper PMC8449414, “Rational design of ASCT2 inhibitors using an integrated experimental-computational approach” (Proceedings of the National Academy of Sciences of the …, 2021).

These compounds were tested against T1, hASCT2 (Homo sapiens, UniProt Q15758) (assay: Glutamine transport assay in proteoliposomes reconstituted with purified hASCT2). Conditions: in the presence of 5 µM glutamine; read-out: IC50, inhibition of glutamine uptake in proteoliposomes.
T1 construct: expressed in transfected cells; host or cells: HEK293 (ATCC CRL-11268), transient transfection
T1 sequence (Q15758 1-541): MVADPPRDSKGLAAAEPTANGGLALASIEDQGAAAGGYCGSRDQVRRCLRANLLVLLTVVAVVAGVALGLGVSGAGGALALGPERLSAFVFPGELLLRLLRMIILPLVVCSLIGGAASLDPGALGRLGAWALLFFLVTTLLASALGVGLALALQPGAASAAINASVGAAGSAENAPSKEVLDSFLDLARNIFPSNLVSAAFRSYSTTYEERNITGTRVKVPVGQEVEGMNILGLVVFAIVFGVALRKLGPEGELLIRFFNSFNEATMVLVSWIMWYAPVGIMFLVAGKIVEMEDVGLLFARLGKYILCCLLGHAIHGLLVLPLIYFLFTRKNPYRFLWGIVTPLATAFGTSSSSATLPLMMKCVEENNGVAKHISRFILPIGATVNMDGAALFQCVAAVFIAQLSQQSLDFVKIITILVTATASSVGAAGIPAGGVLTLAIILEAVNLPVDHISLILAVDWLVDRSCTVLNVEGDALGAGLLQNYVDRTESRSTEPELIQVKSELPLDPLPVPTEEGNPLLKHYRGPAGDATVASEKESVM
Assay type: biochemical
From the text: Our computational models predicted Lc-BPE as a competitive inhibitor targeting the substrate binding site. To test this prediction, we performed electrophysiological competition experiments in the presence of varying concentrations of the substrate, L-alanine. The results were consistent with a competitive inhibition mechanism (SI Appendix, Fig. S4). At low inhibitor concentrations, the alanine-induced currents were inward, as expected from transported substrates, indicative of the inability of Lc-BPE to displace alanine from the binding site. However, as inhibitor concentration increased, the currents became outwardly directed in a dose-dependent manner, which marked the displacement of alanine by the inhibitor (SI Appendix, Fig. S5). The apparent Ki increased as a function of the alanine concentration, as anticipated for a competitive mechanism (SI Appendix, Figs. S5 and S6). […] We further tested the inhibitory activity of Lc-BPE in a cell-free transport assay in proteoliposomes, where purified and reconstituted hASCT2 catalyzes the exchange of intracellular nonlabeled L-glutamine with extracellular radioactive-labeled L-glutamine. We observed a dose-dependent inhibition of glutamine transport when Lc-BPE was added externally, which confirms that this compound is an hASCT2 inhibitor with a half-maximum inhibitory concentration (IC50) value of 20 µM in the presence of 5 µM glutamine (Fig. 2D).
Dilutions to working concentrations were made using external buffer. The highest […]
cells. For rASCT2, hASCT2 and hASCT1, external buffer contained 140 mM NaCl, 2 mM MgCl2, 2 mM CaCl2, and 10 mM HEPES, pH 7.40 while internal pipette solution comprised of 130 mM NaSCN, 2 mM MgCl2, 10 mM EGTA, 10 mM HEPES and 10mM alanine, pH 7.40. […] Current s traces were recorded using an Adams and List EPC7 amplifier and digitized using a Molecular Devices Digidata A/D converter.
Data analysis was performed as described previously 46. Linear and nonlinear curve fitting of the experimental data were analyzed using MicroCal Origin software. […]

IC50	Compound
56 µM	N[C@@H](COC(=O)c1ccc(NC(=O)c2ccccc2)cc1)C(=O)O [ERA-21]
411 µM	O=C(O[C@H]1CN[C@H](C(=O)O)C1)c1ccc(C(=O)c2ccccc2)cc1 [ERA-35]

Compound	IC50
O=C(O[C@@H]1CN[C@H](C(=O)O)C1)c1ccc(-c2ccccc2)cc1 [Lc-BPE, L-cis hydroxyproline biphenyl ester]	20 µM
